Test results as given in US9763942B2, “Serine/threonine kinase inhibitors” (Array BioPharma Inc., priority 2013, dated 2017).

Biological target: T1, human ERK-2 (Mitogen Activated Kinase 1) (Homo sapiens, UniProt P28482)
T1 construct: n-terminal 6-His fusion protein in E. coli and corresponding to aa 8-360; 6-His (N); made in house; host or cells: E. coli
Test: ERK-2 Enzymatic Assay
Type: biochemical
Conditions: ERK-2 enzymatic assay; read-out: IC50
Excerpt: Table 1 contains representative data for Examples disclosed herein.

T1 sequence (P28482 8-360): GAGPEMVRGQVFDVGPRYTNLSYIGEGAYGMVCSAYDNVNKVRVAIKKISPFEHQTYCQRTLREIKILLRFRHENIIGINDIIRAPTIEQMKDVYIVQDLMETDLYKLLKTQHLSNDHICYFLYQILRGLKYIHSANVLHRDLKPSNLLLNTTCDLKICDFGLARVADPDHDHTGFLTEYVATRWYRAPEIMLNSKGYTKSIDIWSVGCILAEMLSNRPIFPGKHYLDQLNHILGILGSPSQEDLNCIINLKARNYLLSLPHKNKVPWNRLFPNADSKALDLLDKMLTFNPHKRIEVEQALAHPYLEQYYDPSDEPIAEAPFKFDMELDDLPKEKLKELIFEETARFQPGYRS

SMILES | IC50
Cc1ccc(Cn2nnc3cc(-c4ccnc(Nc5ccnn5C)n4)ccc32)cn1 [Example 57, N-(1-methyl-1H-pyrazol-5-yl)-4-(1-((6-methylpyridin-3-yl)methyl)-1H-benzo[d][1,2,3]triazol-5-yl)pyrimidin-2-amine] | < 100 nM
Cn1nccc1Nc1nccc(-c2ccc3c(c2)nnn3CC2CCCC2)n1 [Example 29, 4-(1-(cyclopentylmethyl)-1H-benzo[d][1,2,3]triazol-5-yl)-N-(1-methyl-1H-pyrazol-5-yl)pyrimidin-2-amine] | < 100 nM
Cn1nccc1Nc1nccc(-c2cnc3c(c2)nnn3Cc2ccc(Cl)c(F)c2)n1 [Example 119, 4-(3-(4-chloro-3-fluorobenzyl)-3H-(1,2,3]triazolo[4,5-b]pyridin-6-yl)-N-(1-methyl-1H-pyrazol-5-yl)pyrimidin-2-amine] | < 100 nM
CC(C)OCCCn1nnc2cc(-c3ccnc(Nc4ccnn4C)n3)ccc21 [Example 102, 4-(1-(3-isopropoxypropyl)-1H-benzo[d][1,2,3]triazol-5-yl)-N-(1-methyl-1H-pyrazol-5-yl)pyrimidin-2-amine] | < 100 nM
COc1ccc(Cn2nnc3cc(-c4ccnc(Nc5cnn(C)c5)n4)ccc32)cc1F [Example 2, 4-(1-(3-fluoro-4-methoxybenzyl)-1H-benzo[d][1,2,3]triazol-5-yl)-N-(1-methyl-1H-pyrazol-4-yl)pyrimidin-2-amine] | < 100 nM
Cn1nccc1Nc1nccc(-c2ccc3c(c2)nnn3Cc2ncc(F)cc2F)n1 [Example 69, 4-(1-((3,5-difluoropyridin-2-yl)methyl)-1H-benzo[d][1,2,3]triazol-5-yl)-N-(1-methyl-1H-pyrazol-5-yl)pyrimidin-2-amine] | < 100 nM
Cn1nccc1Nc1nccc(-c2ccc3c(c2)nnn3CC2CC(F)(F)C2)n1 [Example 34, 4-(1-((3,3-difluorocyclobutyl)methyl)-1H-benzo[d][1,2,3]triazol-5-yl)-N-(1-methyl-1H-pyrazol-5-yl)pyrimidin-2-amine] | < 100 nM
COc1ccc(Cn2nnc3cc(-c4ccnc(Nc5nnnn5C)n4)ccc32)cc1F [Example 24, 4-(1-(3-fluoro-4-methoxybenzyl)-1H-benzo[d][1,2,3]triazol-5-yl)-N-(1-methyl-1H-tetrazol-5-yl)pyrimidin-2-amine] | < 100 nM
Cn1ccc(Cn2nnc3cc(-c4ccnc(Nc5ccnn5C)n4)ccc32)n1 [Example 32, 4-(1-((1-methyl-1H-pyrazol-3-yl)methyl)-1H-benzo[d][1,2,3]triazol-5-yl)-N-(1-methyl-1H-pyrazol-5-yl)pyrimidin-2-amine] | < 100 nM
Fc1cccc(Cn2nnc3cc(-c4ccnc(NC5CCOCC5)n4)ccc32)c1 [Example 107, 4-(1-(3-fluorobenzyl)-1H-benzo[d][1,2,3]triazol-5-yl)-N-(tetrahydro-2H-pyran-4-yl)pyrimidin-2-amine] | < 100 nM
Cn1nccc1Nc1nccc(-c2ccc3c(c2)nnn3CCc2ccc(Cl)cc2)n1 [Example 3, 4-(1-(4-chlorophenethyl)-1H-benzo[d][1,2,3]triazol-5-yl)-N-(1-methyl-1H-pyrazol-5-yl)pyrimidin-2-amine] | < 100 nM
Cn1nccc1Nc1nccc(-c2ccc3c(c2)nnn3CCCF)n1 [Example 40, 4-(1-(3-fluoropropyl)-1H-benzo[d][1,2,3]triazol-5-yl)-N-(1-methyl-1H-pyrazol-5-yl)pyrimidin-2-amine] | < 100 nM
COc1ccc(Cn2nnc3cc(-c4ccnc(NC5CCOCC5)n4)ccc32)cc1F [Example 110, 4-(1-(3-fluoro-4-methoxybenzyl)-1H-benzo[d][1,2,3]triazol-5-yl)-N-(tetrahydro-2H-pyran-4-yl)pyrimidin-2-amine] | < 100 nM
COc1cccnc1Cn1nnc2cc(-c3ccnc(Nc4ccnn4C)n3)ccc21 [Example 68, 4-(1-((3-methoxypyridin-2-yl)methyl)-1H-benzo[d][1,2,3]triazol-5-yl)-N-(1-methyl-1H-pyrazol-5-yl)pyrimidin-2-amine] | < 100 nM
Cn1nccc1Nc1nccc(-c2ccc3c(c2)nnn3[C@@H]2CNC[C@H]2c2ccc(F)c(F)c2)n1 [Example 78, 4-(1-((3S,4R)-4-(3,4-difluorophenyl)pyrrolidin-3-yl)-1H-benzo[d][1,2,3]triazol-5-yl)-N-(1-methyl-1H-pyrazol-5-yl)pyrimidin-2-amine] | < 100 nM
Cn1nccc1Nc1nccc(-c2ccc3c(c2)nnn3Cc2ccc(F)c(Cl)c2)n1 [Example 125, 4-(1-(3-chloro-4-fluorobenzyl)-1H-benzo[d][1,2,3]triazol-5-yl)-N-(1-methyl-1H-pyrazol-5-yl)pyrimidin-2-amine] | < 100 nM
Cn1nccc1Nc1nccc(-c2ccc3c(c2)nnn3C(CN2CCCC2)c2ccc(Cl)c(F)c2)n1 (centres unmarked) [Example 92, 4-(1-(1-(4-chloro-3-fluorophenyl)-2-(pyrrolidin-1-yl)ethyl)-1H-benzo[d][1,2,3]triazol-5-yl)-N-(1-methyl-1H-pyrazol-5-yl)pyrimidin-2-amine] | < 100 nM
Cn1nccc1Nc1nccc(-c2ccc3c(c2)nnn3[C@@H](CO)c2ccc(Cl)c(F)c2)n1 [Example 94, (R)-2-(4-chloro-3-fluorophenyl)-2-(5-(2-((1-methyl-1H-pyrazol-5-yl)amino)pyrimidin-4-yl)-1H-benzo[d][1,2,3]triazol-1-yl)ethanol] | < 100 nM

SMILES | IC50
CCC(CC)Cn1nnc2cc(-c3ccnc(Nc4ccnn4C)n3)ccc21 [Example 28, 4-(1-(2-ethylbutyl)-1H-benzo[d][1,2,3]triazol-5-yl)-N(1-methyl-1H-pyrazol-5-yl)pyrimidin-2-amine] | < 100 nM
CN1CC(Cn2nnc3cc(-c4ccnc(Nc5ccnn5C)n4)ccc32)C1 [Example 36, N-(1-methyl-1H-pyrazol-5-yl)-4-(1-((1-methylazetidin-3-yl)methyl)-1H-benzo[d][1,2,3]triazol-5-yl)pyrimidin-2-amine] | < 100 nM
Cn1nccc1Nc1nccc(-c2ccc3c(c2)nnn3CC2CN(C(=O)OC(C)(C)C)C2)n1 [Example 63, tert-butyl 3-((5-(2-((1-methyl-1H-pyrazol-5-yl)amino)pyrimidin-4-yl)-1H-benzo[d][1,2,3]triazol-1-yl)methyl)azetidine-1-carboxylate] | < 100 nM
CCC(C)Cn1nnc2cc(-c3ccnc(N[C@@H](C)CO)n3)ccc21 (stereo partly drawn) [Example 98, (2S)2-((4-(1-(2-methylbutyl)-1H-benzo[d][1,2,3]triazol-5-yl)pyrimidin-2-yl)amino)propan-1-ol] | < 100 nM
COc1ccc(Cn2nnc3cc(-c4ccnc(NC(C)C)n4)ccc32)cc1F [Example 13, 4-(1-(3-fIuoro-4-methoxybenzyl)-1H-benzo[d][1,2,3]triazol-5-yl)-N-isopropylpyrimidin-2-amine] | < 100 nM
COc1ccc(Cn2nnc3cc(-c4ccnc(NC5COC5)n4)ccc32)cc1F [Example 10, 4-(1-(3-fluoro-4-methoxybenzyl)-1H-benzo[d][1,2,3]triazol-5-yl)-N-(oxetan-3-yl)pyrimidin-2-amine] | < 100 nM
COc1ccc(Cn2nnc3cc(-c4ccnc(NCC5COC5)n4)ccc32)cc1F [Example 17, 4-(1-(3-fluoro-4-methoxybenzyl)-1H-benzo[d][1,2,3]triazol-5-yl)-N-(oxetan-3-ylrnethyl)pyrimidin-2-amine] | < 100 nM
Cn1nccc1Nc1nccc(-c2ccc3c(c2)nnn3CC(C)(C)O)n1 [Example 60, 2-methyl-1-(5-(2-((1-methyl-1H-pyrazol-5-yl)amino)pyrimidin-4-yl)-1H-benzo[d][1,2,3]triazol-1-yl)propan-2-ol] | < 100 nM
COc1ccc(Cn2nnc3cc(-c4ccnc(NC(C)(C)CN5CCOCC5)n4)ccc32)cc1F [Example 23, 4-(1-(3-fluoro-4-methoxybenzyl)-1H-benzo[d][1,2,3]triazol-5-yl)-N-(2-methyl-1-morpholinopropan-2-yl)pyrimidin-2-amine] | < 100 nM
Cn1nccc1Nc1nccc(-c2ccc3c(c2)nnn3C2CNCCC2c2cccc(F)c2)n1 (centres unmarked) [Example 89, 4-(1-(4-(3-fluorophenyl)piperidin-3-yl)-1H-benzoyl[d][1,2,3]triazol-5-yl)-N-(1-methyl-1H-pyrazol-5-yl)pyrimidin-2-amine] | < 100 nM
CN1C[C@@H](n2nnc3cc(-c4ccnc(Nc5ccnn5C)n4)ccc32)[C@H](c2cc(F)cc(F)c2)C1 [Example 76, 4-(1-((3S,4R)-4-(3,5-difluorophenyl)-1-methylpyrrolidin-3-yl)-1H-benzo[d][1,2,3]triazol-5-yl)-N-(1-methyl-1H-pyrazol-5-yl)pyrimidin-2-amine] | < 100 nM
Fc1ccc(Cn2nnc3cc(-c4ccnc(NC5CCOCC5)n4)ccc32)cc1 [Example 111, 4-(1-(4-fluorobenzyl)-1H-benzo[d][1,2,3]triazol-5-yl)-N-(tetrahydro-2H-pyran-4-yl)pyrimidin-2-amine] | < 100 nM
CC(C)Cn1nnc2cc(-c3ccnc(Nc4ccnn4C)n3)ccc21 [Example 38, 4-(1-isobutyl-1H-benzo[d][1,2,3]triazol-5-yl)-N-(1-methyl-1H-pyrazol-5-yl)pyrimidin-2-amine] | < 100 nM
COc1ncccc1Cn1nnc2cc(-c3ccnc(Nc4ccnn4C)c3)ccc21 [Example 54, 4-(1-((2-methoxypyridin-3-yl)methyl)-1H-benzo[d][1,2,3]triazol-5-yl)-N-(1-methyl-1H-pyrazol-5-yl)pyridin-2-amine] | < 100 nM
COc1ccc(Cn2nnc3cc(-c4ccnc(N[C@H]5CCOC[C@H]5F)n4)ccc32)cc1F [Example 7, 4-(1-(3-fluoro-4-methoxybenzyl)-1H-benzo[d][1,2,3]triazol-5-yl)-N-((3S,4S)-3-fluorotetrahydro-2H-pyran-4-yl)pyrimidin-2-amine] | < 100 nM
CCC(C)Cn1nnc2cc(-c3ccnc(Nc4cnn(C)c4)n3)ccc21 (centres unmarked) [Example 96, N-(1-methyl-1H-pyrazol-4-yl)-4-(1-(2-methylbutyl)-1H-benzo[d][1,2,3]triazol-5-yl)pyrimidin-2-amine] | < 100 nM
CC(C)N1CC(n2nnc3cc(-c4ccnc(Nc5ccnn5C)n4)ccc32)[C@H](c2cc(F)cc(F)c2)C1 (some centres unmarked) [Example 80] | < 100 nM
